Laboratory results taken from BigSolDB 2.1.

SMILES: CN(C)NC(=O)CCC(=O)O
- solubility (mole fraction) (in 2-butoxyethanol, 283.15 K): 0.000247
- solubility (mole fraction) (in 2-butoxyethanol, 288.15 K): 0.000346
- solubility (mole fraction) (in 2-butoxyethanol, 293.15 K): 0.000471
- solubility (mole fraction) (in 2-butoxyethanol, 298.15 K): 0.000632
- solubility (mole fraction) (in 2-butoxyethanol, 303.15 K): 0.000905
- solubility (mole fraction) (in 2-butoxyethanol, 308.15 K): 0.00126
- solubility (mole fraction) (in 2-butoxyethanol, 313.15 K): 0.00162
- solubility (mole fraction) (in 2-butoxyethanol, 318.15 K): 0.00213
- solubility (mole fraction) (in 2-butoxyethanol, 323.15 K): 0.00278
- solubility (mole fraction) (in 2-ethoxyethanol, 283.15 K): 0.00176
- solubility (mole fraction) (in 2-ethoxyethanol, 288.15 K): 0.00228
- solubility (mole fraction) (in 2-ethoxyethanol, 293.15 K): 0.00291
- solubility (mole fraction) (in 2-ethoxyethanol, 298.15 K): 0.00382
- solubility (mole fraction) (in 2-ethoxyethanol, 303.15 K): 0.00492
- solubility (mole fraction) (in 2-ethoxyethanol, 308.15 K): 0.00621
- solubility (mole fraction) (in 2-ethoxyethanol, 313.15 K): 0.00767
- solubility (mole fraction) (in 2-ethoxyethanol, 318.15 K): 0.00954
- solubility (mole fraction) (in 2-ethoxyethanol, 323.15 K): 0.012
- solubility (mole fraction) (in 2-methoxyethanol, 283.15 K): 0.00398
- solubility (mole fraction) (in 2-methoxyethanol, 288.15 K): 0.00519
- solubility (mole fraction) (in 2-methoxyethanol, 293.15 K): 0.00634
- solubility (mole fraction) (in 2-methoxyethanol, 298.15 K): 0.00784
- solubility (mole fraction) (in 2-methoxyethanol, 303.15 K): 0.0096
- solubility (mole fraction) (in 2-methoxyethanol, 308.15 K): 0.0116
- solubility (mole fraction) (in 2-methoxyethanol, 313.15 K): 0.014
- solubility (mole fraction) (in 2-methoxyethanol, 318.15 K): 0.0169
- solubility (mole fraction) (in 2-methoxyethanol, 323.15 K): 0.0203
- solubility (mole fraction) (in 2-propoxyethanol, 283.15 K): 0.000405
- solubility (mole fraction) (in 2-propoxyethanol, 288.15 K): 0.000617
- solubility (mole fraction) (in 2-propoxyethanol, 293.15 K): 0.000794
- solubility (mole fraction) (in 2-propoxyethanol, 298.15 K): 0.00108
- solubility (mole fraction) (in 2-propoxyethanol, 303.15 K): 0.00144
- solubility (mole fraction) (in 2-propoxyethanol, 308.15 K): 0.00184
- solubility (mole fraction) (in 2-propoxyethanol, 313.15 K): 0.00233
- solubility (mole fraction) (in 2-propoxyethanol, 318.15 K): 0.00304
- solubility (mole fraction) (in 2-propoxyethanol, 323.15 K): 0.00393
- solubility (mole fraction) (in DMF, 283.15 K): 0.0207
- solubility (mole fraction) (in DMF, 288.15 K): 0.0245
- solubility (mole fraction) (in DMF, 293.15 K): 0.0293
- solubility (mole fraction) (in DMF, 298.15 K): 0.0329
- solubility (mole fraction) (in DMF, 303.15 K): 0.0388
- solubility (mole fraction) (in DMF, 308.15 K): 0.0449
- solubility (mole fraction) (in DMF, 313.15 K): 0.0503
- solubility (mole fraction) (in DMF, 318.15 K): 0.0568
- solubility (mole fraction) (in DMF, 323.15 K): 0.0645
- solubility (mole fraction) (in NMP, 283.15 K): 0.037
- solubility (mole fraction) (in NMP, 288.15 K): 0.042
- solubility (mole fraction) (in NMP, 293.15 K): 0.0481
- solubility (mole fraction) (in NMP, 298.15 K): 0.0552
- solubility (mole fraction) (in NMP, 303.15 K): 0.063
- solubility (mole fraction) (in NMP, 308.15 K): 0.0714
- solubility (mole fraction) (in NMP, 313.15 K): 0.0813
- solubility (mole fraction) (in NMP, 318.15 K): 0.09
- solubility (mole fraction) (in NMP, 323.15 K): 0.1
- solubility (mole fraction) (in acetonitrile, 283.15 K): 0.000172
- solubility (mole fraction) (in acetonitrile, 288.15 K): 0.000226
- solubility (mole fraction) (in acetonitrile, 293.15 K): 0.000296
- solubility (mole fraction) (in acetonitrile, 298.15 K): 0.000386
- solubility (mole fraction) (in acetonitrile, 303.15 K): 0.000503
- solubility (mole fraction) (in acetonitrile, 308.15 K): 0.000653
- solubility (mole fraction) (in acetonitrile, 313.15 K): 0.000846
- solubility (mole fraction) (in acetonitrile, 318.15 K): 0.00109
- solubility (mole fraction) (in acetonitrile, 323.15 K): 0.00141
- solubility (mole fraction) (in ethanol, 283.15 K): 0.00275
- solubility (mole fraction) (in ethanol, 288.15 K): 0.00354
- solubility (mole fraction) (in ethanol, 293.15 K): 0.00437
- solubility (mole fraction) (in ethanol, 298.15 K): 0.00551
- solubility (mole fraction) (in ethanol, 303.15 K): 0.0069
- solubility (mole fraction) (in ethanol, 308.15 K): 0.00848
- solubility (mole fraction) (in ethanol, 313.15 K): 0.0102
- solubility (mole fraction) (in ethanol, 318.15 K): 0.0128
- solubility (mole fraction) (in ethanol, 323.15 K): 0.0164
- solubility (mole fraction) (in isopropanol, 283.15 K): 0.000326
- solubility (mole fraction) (in isopropanol, 288.15 K): 0.00048
- solubility (mole fraction) (in isopropanol, 293.15 K): 0.000752
- solubility (mole fraction) (in isopropanol, 298.15 K): 0.0011
- solubility (mole fraction) (in isopropanol, 303.15 K): 0.00159
- solubility (mole fraction) (in isopropanol, 308.15 K): 0.0022
- solubility (mole fraction) (in isopropanol, 313.15 K): 0.00302
- solubility (mole fraction) (in isopropanol, 318.15 K): 0.00433
- solubility (mole fraction) (in isopropanol, 323.15 K): 0.00579
- solubility (mole fraction) (in methanol, 283.15 K): 0.00823
- solubility (mole fraction) (in methanol, 288.15 K): 0.0097
- solubility (mole fraction) (in methanol, 293.15 K): 0.0116
- solubility (mole fraction) (in methanol, 298.15 K): 0.014
- solubility (mole fraction) (in methanol, 303.15 K): 0.0167
- solubility (mole fraction) (in methanol, 308.15 K): 0.0196
- solubility (mole fraction) (in methanol, 313.15 K): 0.0227
- solubility (mole fraction) (in methanol, 318.15 K): 0.026
- solubility (mole fraction) (in methanol, 323.15 K): 0.0301
- solubility (mole fraction) (in n-pentanol, 283.15 K): 0.000149
- solubility (mole fraction) (in n-pentanol, 288.15 K): 0.000191
- solubility (mole fraction) (in n-pentanol, 293.15 K): 0.00026
- solubility (mole fraction) (in n-pentanol, 298.15 K): 0.000344
- solubility (mole fraction) (in n-pentanol, 303.15 K): 0.000477
- solubility (mole fraction) (in n-pentanol, 308.15 K): 0.000634
- solubility (mole fraction) (in n-pentanol, 313.15 K): 0.000821
- solubility (mole fraction) (in n-pentanol, 318.15 K): 0.00109
- solubility (mole fraction) (in n-pentanol, 323.15 K): 0.00145
- solubility (mole fraction) (in n-propanol, 283.15 K): 0.000944
- solubility (mole fraction) (in n-propanol, 288.15 K): 0.00121
- solubility (mole fraction) (in n-propanol, 293.15 K): 0.00161
- solubility (mole fraction) (in n-propanol, 298.15 K): 0.00217
- solubility (mole fraction) (in n-propanol, 303.15 K): 0.00285
- solubility (mole fraction) (in n-propanol, 308.15 K): 0.00367
- solubility (mole fraction) (in n-propanol, 313.15 K): 0.00471
- solubility (mole fraction) (in n-propanol, 318.15 K): 0.00615
- solubility (mole fraction) (in n-propanol, 323.15 K): 0.00768
